The values that follow come from patent US6774131B1, “Remedies for endothelin-induced diseases” (Yamanouchi Pharmaceutical Co., Ltd., priority 2000, dated 2004).

Series [1] relates to MC3T3-E1, mouse osteoblast-like cells. Briefly: ET-1-induced DNA synthesis ([3H]-thymidine incorporation) in MC3T3-E1. It is filed as cell-based. The procedure:
MC3T3-E1, mouse osteoblast-like cells, was used in these experiments (Journal of Cell Biology,96(1),191-198,1983).
As DNA synthesis level, the incorporation of [^3H]-labeled thymidine was assayed. The cells were seeded at a density of 1.5×10^4 cells/well in a 96-well plate using 0.2% FCS culture medium and cultured for 2 days. Subsequently, vehicle or ET-1 was added to the plate and cultured for 24 hours. Continuously, [^3H-methyl]-thymidine was added at 0.5 μCi/well to the culture and pulse-labeling performed for 6 hours. Continuously, SDS solution to a final concentration of 0.2% was added for solubilization of the cell, and after solubilization the radioactivity of [^3H-methyl]-thymidine used for DNA synthesis was counted with a liquid scintillation counter. As a control, the count of a culture to which the vehicle was added was defined 100%, thus the percentage increase of DNA synthesis was calculated. […]
The results are shown in the form of mean±standard error. The significant difference between groups was analyzed by one-way analysis of variance, to calculate the p-values by the Dunnett's multiple range test. […] At each experiment, the EC50 value of ET-1 and the IC50 value of the Compound 1 were calculated by the Logistic regression analysis.

A short description of series [2]: Plasma concentration when orally administered to humans. It is filed as in vivo, human. The procedure: For the purpose of the assessment of the pharmacokinetics, tolerance and safety of Compound 1 when orally administered, the Compound 1 was administered at a single dose of 10 mg to 3 subjects of progressive prostate cancer patients after prostatectomy. So as to assay the plasma concentration of intact Compound 1, blood of 6 ml was collected in a lithium heparin-containing polyethylene tube, prior to administration and at individual times of 30 minutes, one hour, 1.5 hour, 2 hours, 3 hours, 4 hours, 6 hours, 8 hours, 12 hours, 24 hours, 36hours and 48hours after administration, followed by immediate centrifugation (4° C., 10 minutes, 3500 rpm), to recover the plasma. The plasma samples were stored under freezing at −70° C. until the concentration was assayed. The plasma concentration was assayed by the LC-MS/MS method.

The next series addresses T1, human ETA receptor (Homo sapiens, UniProt P25101).
T1 sequence (P25101 21-427): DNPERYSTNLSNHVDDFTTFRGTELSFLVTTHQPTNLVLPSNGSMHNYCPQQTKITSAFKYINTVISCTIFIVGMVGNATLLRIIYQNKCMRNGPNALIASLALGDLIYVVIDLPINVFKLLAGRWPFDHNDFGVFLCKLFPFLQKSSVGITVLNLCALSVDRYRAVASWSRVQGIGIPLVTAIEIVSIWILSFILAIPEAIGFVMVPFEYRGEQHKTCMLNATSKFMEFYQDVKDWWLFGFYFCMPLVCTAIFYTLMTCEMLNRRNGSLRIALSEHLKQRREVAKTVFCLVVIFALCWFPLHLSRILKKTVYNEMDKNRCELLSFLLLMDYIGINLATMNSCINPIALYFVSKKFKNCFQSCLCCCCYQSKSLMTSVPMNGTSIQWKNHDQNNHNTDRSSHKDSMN
To be noted: Compound 1: WO97/22595; ABT-627: J.Pharmacol.Exp.Ther.,276,473-481,1996; read-out: affinity to human ETA receptor; cited from earlier work.

Series [3] concerns PPC-1, hormone-refractory human prostate cancer cells. Briefly: ET-1-induced cell growth ([3H]-thymidine incorporation) of PPC-1. The format is cell-based. The protocol:
PPC-1, hormone-refractory human prostate cancer cells, was used in these experiments (International Journal of Cancer,44,898-903,1989).
DNA synthesis level was measured as the index of cell growth. As DNA synthesis level, the incorporation of [^3H]-labeled thymidine was assayed. The cells were seeded at a density of 1×10^4 cells/well in a 96-well plate using no FCS-added culture medium and cultured for 5 days. Subsequently, vehicle or ET-1 was added to the plate and cultured for 24 hours. Continuously, [^3H-methyl]-thymidine was added at 0.5 μCi/well to the culture and pulse-labeling performed for 6 hours. Continuously, SDS solution to a final concentration of 0.2% was added for solubilization of the cell, and after solubilization the radioactivity of [^3H-methyl]-thymidine used for DNA synthesis was counted with a liquid scintillation counter. As a control, the count of a culture to which the vehicle was added was defined 100%, thus the percentage increase of DNA synthesis was calculated.
In this experiment, ET-1 and Compound 1 were within the concentration ranges of 10^−13 to 10^−6 M (10-fold dilution series) and 10^−10 to 3×10^−6 M (3-fold dilution series), respectively, as the final concentrations thereof. Compound 1 was added about 2 hr before the addition of ET-1.
The results are shown in the form of mean t standard error. The significant difference between groups was analyzed by one-way analysis of variance, and calculated the p-values by the Dunnett's multiple range test. The p-value below 5% was defined as statistically significant. The IC50 value of the Compound 1 were calculated by the Logistic regression analysis.

The next series deals with prostate cancer patients. Briefly: Clinical study in prostate cancer patients. The format is in vivo, human. The protocol: A clinical study was carried out under the following conditions using the patients suffering from prostate cancer.
Subjects: eighteen patients of at least 45 years of age with prostate cancer(stage D2) who are hormone-refractory or have relapsed after anti-androgen therapy.
Strength: 2,10 and 40 mg tablets
Dosage: 2,4,10,20,60,120and 240 mg/day-dose frequency was once daily ot twice daily
Duration of treatment: four weeks (28 days)
Parameters for evalution: Evaluations and measurements were made for the following items before and after the administration.
(1) Prostate specific antigen (PSA)
(2) Born metabolism markers (bone alkaline phosphatase or ratio of deoxypyridinoline/creatinine)
(3) Bone pain (change of visual analogue scale(VAS)/use of analgesics)

The mark [4] stands for this setting: single oral dose 10 mg, prostate cancer patients, plasma.
Setting [5] is: 2-240 mg/day, four weeks, eighteen patients.

Usually AUC stands for the area under the concentration-time curve, a measure of exposure. As a reminder, the Cmax is the peak of the concentration-time curve. For the compound `COc1ccccc1Oc1c(NS(=O)(=O)C=Cc2ccccc2)nc(-c2ncccn2)nc1OC.[K]` [Compound 1, N-[6-methoxy-5-(2-methoxyphenoxy)-2-(2-pyrimidinyl)-4-pyrimidinyl]-2-phenylethenesulfoneamide•potassium salt], the IC50 in series [1] (ET-1 10^−10 M, read-out: IC50 of ET-1-induced increase in [3H]-thymidine incorporation) was 11.5 nM. Also, the “AUC ratio Compound 1 (10 mg)/ABT-627 (20 mg)” value in series [2] (oral, humans, listed as The effective component of the invention) is reported as “about 18 fold”. Further, in series [2] (setting [4]), the AUC was found to be 14700 ng·h/mL, the Cmax is 1000 ng/mL, the T max was determined as 2 h and the “T ½” value was 13 h. Further, on human ETA receptor, the Ki was 0.697 nM. Besides, in series [3] (ET-1 10^−8 M), the “concentration above which the inhibitory effect was statistically significant” value was “above 3×10^−7 M”. In addition, the IC50 in series [3] (ET-1 10^−8 M, [3H]-thymidine incorporation, read-out: IC50 of ET-1-induced promotion of PPC-1 cell growth) amounted to 28 ± 9.8 nM. The “effective dose relative to the minimum effective dose of ABT-627” value in the series with prostate cancer patients (2 mg vs 10 mg) is “⅕”. In the series with prostate cancer patients (setting [5]), the “patients with decreased bone specific alkaline phosphatase” value is reported as “eleven (out of eighteen)”, the “patients with improved pain score VAS” value is listed as “nine (out of eighteen)”, the “patients with improved prostate cancer marker PSA” value is given as “ten” and the “patients with improved ratio of deoxypyridinoline/creatinine” value is “fourteen (out of eighteen)”. In the series on prostate cancer patients (setting [5]), the “patients with reduced analgesics” value is reported as “four (out of eighteen)” and the “patients with stabilized PSA” value is given as “two”. In addition, the “dose from which effective” value with prostate cancer patients (Test Example 5, prostate cancer patients) was at least 2 mg. Also, in the series on prostate cancer patients (oral tablets, four weeks), the “dose from which effective in improving each observed item” value is at least 2 mg/day.
On to “ET-1: endothelin; induces pain in humans and experimental animals; used as stimulus of pain, Ca2+ increase and cell growth [reference compound]”, for which the EC50 in series [1] (ET-1 10^−13 to 10^−6 M, read-out: EC50 of increase of [3H]-thymidine incorporation (DNA synthesis)) came to 0.00984 nM. Moreover, the “concentration above which the effect of ET-1 on [3H]-thymidine incorporation was statistically significant” value in series [3] is recorded as “above 10^−8 M”.
